Test results as given in patent US12660819B2, “Herbicidal derivatives” (SYNGENTA CROP PROTECTION AG, priority 2020, dated 2026).

Key:
Type in all cases: in vivo
[1] = tested on: Solanum nigrum (SOLNI); assay: Post-emergence Test (glasshouse, percentage damage to the plant); conditions: post-emergence spray, 1000 g/ha unless otherwise stated, evaluated after 13 days
Summary of the method: (§1)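 Scored 13 days after spraying as percentage plant damage in five bands (5=81–100%, 4=61–80%, 3=41–60%, 2=21–40%, 1=0–20%). Spray at 1000 g/ha unless stated, in acetone/water 50:50 plus 0.5% Tween 20, onto sown glasshouse pots (24/16 °C, 14 h light, 65% humidity).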

[2] = tested on: Amaranthus retoflexus (AMARE); assay: as above; conditions: post-emergence spray, 1000 g/ha unless otherwise stated, evaluated after 13 days
Summary of the method: as §1

[3] = tested on: Setaria faberi (SETFA); assay: as above; conditions: post-emergence spray, 1000 g/ha unless otherwise stated, evaluated after 13 days
Summary of the method: (§2)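 Sown pots; spray 1000 g/ha (unless stated) in acetone/water 50:50 + 0.5% Tween 20; glasshouse 24/16 °C, 14 h light, 65% RH; watered twice daily; % damage read at 13 days, scored 1–5.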

[4] = tested on: Ipomoea hederacea (IPOHE); assay: as above; conditions: post-emergence spray, 1000 g/ha unless otherwise stated, evaluated after 13 days
Summary of the method: as §2

[5] = tested on: Echinochloa crus-galli (ECHCG); assay: as above; conditions: post-emergence spray, 1000 g/ha unless otherwise stated, evaluated after 13 days
Summary of the method: as §1

[6] = tested on: Lolium perenne (LOLPE); assay: as above; conditions: post-emergence spray, 1000 g/ha unless otherwise stated, evaluated after 13 days
Summary of the method: as §1

[7] = tested on: Echinochloa crus-galli (ECHCG); assay: Pre-emergence Test (glasshouse, percentage damage to the plant); conditions: 1000 g/ha unless otherwise stated, five-point scale
[8] = tested on: Ipomoea hederacea (IPOHE); assay: as above; conditions: 1000 g/ha unless otherwise stated, five-point scale
[9] = tested on: Solanum nigrum (SOLNI); assay: as above; conditions: 1000 g/ha unless otherwise stated, five-point scale
[10] = tested on: Lolium perenne (LOLPE); assay: as above; conditions: 1000 g/ha unless otherwise stated, five-point scale
[11] = tested on: Setaria faberi (SETFA); assay: as above; conditions: 1000 g/ha unless otherwise stated, five-point scale
[12] = tested on: Amaranthus retoflexus (AMARE); assay: as above; conditions: 1000 g/ha unless otherwise stated, five-point scale

Row | Structure (SMILES) | Post-emergence Test SOLNI, percentage damage to the plant (five-point scale) [1] | Post-emergence Test AMARE, percentage damage to the plant (five-point scale) [2] | Post-emergence Test SETFA, percentage damage to the plant (five-point scale) [3] | Post-emergence Test IPOHE, percentage damage to the plant (five-point scale) [4] | Post-emergence Test ECHCG, percentage damage to the plant (five-point scale) [5] | Post-emergence Test LOLPE, percentage damage to the plant (five-point scale) [6] | percentage damage to the plant, ECHCG [7] | percentage damage to the plant, IPOHE [8] | percentage damage to the plant, SOLNI [9] | percentage damage to the plant, LOLPE [10] | percentage damage to the plant, SETFA [11] | percentage damage to the plant, AMARE [12]
1 | CCn1c(C)c(-c2ccc(C(F)(F)F)cc2)c(=O)c(C(=O)O)c1-c1ccc(Cl)c(Cl)c1 [Compound 26, 2-(3,4-dichlorophenyl)-1-ethyl-6-methyl-4-oxo-5-[4-(trifluoromethyl)phenyl]pyridine-3-carboxylic acid] | 2 (2=21-40%) | 5 (5=81-100%) | 5 (5=81-100%) | 4 (4=61-80%) | 4 (4=61-80%) | 1 (1=0-20%) | 1 (1=0-20%) | 1 (1=0-20%) | 1 (1=0-20%) | 1 (1=0-20%) | 1 (1=0-20%) | 1 (1=0-20%)
2 | CCn1c(C)c(-c2ncco2)c(=O)c(C(=O)O)c1-c1ccc(Cl)c(Cl)c1 [Compound 27, 2-(3,4-dichlorophenyl)-1-ethyl-6-methyl-5-oxazol-2-yl-4-oxo-pyridine-3-carboxylic acid] | 3 (3=41-60%) | 3 (3=41-60%) | 3 (3=41-60%) | 2 (2=21-40%) | 3 (3=41-60%) | 1 (1=0-20%) | 1 (1=0-20%) | 1 (1=0-20%) | 1 (1=0-20%) | 1 (1=0-20%) | 1 (1=0-20%) | 1 (1=0-20%)
3 | CCn1c(C)c(-c2ccccn2)c(=O)c(C(=O)O)c1-c1ccc(Cl)c(Cl)c1.Cl [Compound 28, 2-(3,4-dichlorophenyl)-1-ethyl-6-methyl-4-oxo-5-pyridin-1-ium-2-yl-pyridine-3-carboxylic acid;chloride] | 3 (3=41-60%) | 2 (2=21-40%) | 3 (3=41-60%) | 4 (4=61-80%) | 2 (2=21-40%) | 2 (2=21-40%) | 1 (1=0-20%) | 3 (3=41-60%) | 2 (2=21-40%) | 1 (1=0-20%) | 1 (1=0-20%) | 1 (1=0-20%)
4 | CCn1c(C)c(-c2ccc(Cl)c(Cl)c2)c(=O)c(C(=O)O)c1-c1ccc(Cl)c(Cl)c1 [Compound 29, 2,5-bis(3,4-dichlorophenyl)-1-ethyl-6-methyl-4-oxo-pyridine-3-carboxylic acid] | 3 (3=41-60%) | 5 (5=81-100%) | 3 (3=41-60%) | 2 (2=21-40%) | 1 (1=0-20%) | 2 (2=21-40%) | 1 (1=0-20%) | 1 (1=0-20%) | 1 (1=0-20%) | 1 (1=0-20%) | 3 (3=41-60%) | 3 (3=41-60%)
5 | CCn1c(C)c(-c2ccsc2)c(=O)c(C(=O)O)c1-c1ccc(Cl)c(Cl)c1 [Compound 30, 2-(3,4-dichlorophenyl)-1-ethyl-6-methyl-4-oxo-5-(3-thienyl)pyridine-3-carboxylic acid] | 3 (3=41-60%) | 4 (4=61-80%) | 3 (3=41-60%) | 3 (3=41-60%) | 2 (2=21-40%) | 2 (2=21-40%) | 3 (3=41-60%) | 2 (2=21-40%) | 2 (2=21-40%) | 2 (2=21-40%) | 4 (4=61-80%) | 1 (1=0-20%)
6 | CCn1c(C)c(-c2ccccc2C)c(=O)c(C(=O)O)c1-c1ccc(Cl)c(Cl)c1 [Compound 31, 2-(3,4-dichlorophenyl)-1-ethyl-6-methyl-5-(o-tolyl)-4-oxo-pyridine-3-carboxylic acid] | 4 (4=61-80%) | 3 (3=41-60%) | 3 (3=41-60%) | 2 (2=21-40%) | 1 (1=0-20%) | 2 (2=21-40%) | 1 (1=0-20%) | 1 (1=0-20%) | 4 (4=61-80%) | 1 (1=0-20%) | 4 (4=61-80%) | 1 (1=0-20%)
7 | CCn1c(C)c(-c2ccc(S(C)(=O)=O)cc2)c(=O)c(C(=O)O)c1-c1ccc(Cl)c(Cl)c1 [Compound 32, 2-(3,4-dichlorophenyl)-1-ethyl-6-methyl-5-(4-methylsulfonylphenyl)-4-oxo-pyridine-3-carboxylic acid] | 3 (3=41-60%) | 1 (1=0-20%) | 3 (3=41-60%) | 1 (1=0-20%) | 4 (4=61-80%) | 1 (1=0-20%) | 4 (4=61-80%) | 1 (1=0-20%) | 1 (1=0-20%) | 1 (1=0-20%) | 4 (4=61-80%) | 1 (1=0-20%)
8 | CCn1c(C)c(-c2ccoc2)c(=O)c(C(=O)O)c1-c1ccc(Cl)c(Cl)c1 [Compound 33, 2-(3,4-dichlorophenyl)-1-ethyl-5-(3-furyl)-6-methyl-4-oxo-pyridine-3-carboxylic acid] | 3 (3=41-60%) | 3 (3=41-60%) | 1 (1=0-20%) | 3 (3=41-60%) | 2 (2=21-40%) | 2 (2=21-40%) | 1 (1=0-20%) | 2 (2=21-40%) | 1 (1=0-20%) | 1 (1=0-20%) | 1 (1=0-20%) | 1 (1=0-20%)
9 | CCn1c(C)c(-c2ccc(OCc3ccccc3)cc2)c(=O)c(C(=O)O)c1-c1ccc(Cl)c(Cl)c1 [Compound 34, 5-(4-benzyloxyphenyl)-2-(3,4-dichlorophenyl)-1-ethyl-6-methyl-4-oxo-pyridine-3-carboxylic acid] | 4 (4=61-80%) | 4 (4=61-80%) | 2 (2=21-40%) | 1 (1=0-20%) | 2 (2=21-40%) | 1 (1=0-20%) | 1 (1=0-20%) | 1 (1=0-20%) | 2 (2=21-40%) | 2 (2=21-40%) | 3 (3=41-60%) | 3 (3=41-60%)
